From patent publication US20220175777A1, “Inhibitors of Multidrug Resistance Transporter P-Glycoprotein” (Southern Methodist University, priority 2014, published 2022)

Legend:
[1] = biological target: T1, Cysteineless Mouse MDR3 P-glycoprotein (Mus musculus, UniProt P21447, C1070A/C1121A/C1223A/C133A/C427A/C638A/C669A/C713A/C952A); settings: cited from earlier work
T1 construct: made in house; host or cells: Pichia pastoris

A2780 = test: Hyper-sensitization of ovarian cancer cells to doxorubicin; assay type: cell-based; settings: not chemotherapy resistant A2780
Source text: Hyper-sensitization of cancers to chemotherapeutics. […] The sensitivity of normal, not chemotherapy resistant A2780 ovarian cancer cell lines to doxorubicin was increased by several orders of magnitude in these assays.

DU145TXR [2] = test: Resensitization of DU145TXR to paclitaxel by 29 variants (MTT cell viability); assay type: cell-based, human; settings: for Fold vs PTX ÷ 29: compared to parental compound 29
Source text: The Group 1 ChemGen/docking routine produced variants of P-gp inhibitor 29 resensitize a multidrug resistant, P-gp overexpressing prostate cancer cell line to paclitaxel. The mitochondrial reduction potential of cells is often used as an indicator for cell viability using MTT assays^40-42. Using these assays it was observed that the five Group 1 derivatives of 29 predicted through the ChemGen/docking routine and synthesized here, 216, 227, 231, 541 and 551, re-sensitized the P-gp overexpressing prostate cancer cell line, DU145TXR^33, to the chemotherapeutic, paclitaxel (FIG. 9, showing results of assays at concentrations of 3 μM, 5 μM, 7 μM, and 10 μM).
Cytotoxicity of the chemotherapeutic, paclitaxel (PTX) to P-gp overexpressing prostate cancer cells, DU145TXR, was determined in the absence and presence of the ChemGen designed 29-variants, 216, 227, 231, 541 and 551. For each experimental compound IC50 values of PTX alone or in the presence of inhibitors, fold improvement of PTX sensitivity in the presence of inhibitor, and fold improvement of PTX sensitivity by variants compared to parental compound 29 are given.

[3] = biological target: T1, Cysteineless Mouse MDR3 P-glycoprotein; test: ATP hydrolysis by purified P-glycoprotein, basal and verapamil-stimulated; assay type: biochemical
Method in brief: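 Cysteine-less mouse MDR3 P-gp (all Cys→Ala), expressed in Pichia pastoris and stabilised with phosphatidyl choline, was pre-incubated with compounds at 37 °C. ATP hydrolysis (2 mM ATP final, 20 min) measured via pyruvate kinase/lactate dehydrogenase-coupled NADH oxidation, with and without verapamil stimulation.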

DU145TXR [4] = test: Intrinsic toxicity, MTT survival; assay type: cell-based, human; settings: Homo sapiens; intrinsic toxicity, 48 hours, MTT; ± standard error
Protocol: Percent survival determined by MTT assay calculated relative to cells treated with equal volume DMSO vehicle and represent the mean±SEM from 2-4 separate studies, each study performed in triplicate wells.
The intrinsic in vitro toxicities of identified compounds were evaluated to determine their potential therapeutic window. This was assessed in a noncancerous cell line (HFL1) and the human prostate cancer cell lines DU145 and the MDR sub-line DU145TxR.

[5] = biological target: Normal Human MDR1 P-glycoprotein (Homo sapiens, UniProt P08183); test: ATP hydrolysis by human P-gp assembled into membrane nanodiscs; assay type: biochemical; settings: human MDR1 P-gp in nanodiscs
Source text: To assess whether the observed discrepancies of compounds stimulating basal P-gp ATPase activity but not being transport substrates of the human pump in the cell culture assessments were due to the fact that these biochemical assays used a cysteineless variant of the mouse MDR3 P-glycoprotein, the experiments were repeated using normal human MDR1 P-gp. In order to stabilize the human protein for the activity assays, the protein was assembled into membrane nanodiscs as described herein.

T1 sequence (P21447 whole entry C133A/C427A/C638A/C669A/C713A/C952A/C1070A/C1121A/C1223A): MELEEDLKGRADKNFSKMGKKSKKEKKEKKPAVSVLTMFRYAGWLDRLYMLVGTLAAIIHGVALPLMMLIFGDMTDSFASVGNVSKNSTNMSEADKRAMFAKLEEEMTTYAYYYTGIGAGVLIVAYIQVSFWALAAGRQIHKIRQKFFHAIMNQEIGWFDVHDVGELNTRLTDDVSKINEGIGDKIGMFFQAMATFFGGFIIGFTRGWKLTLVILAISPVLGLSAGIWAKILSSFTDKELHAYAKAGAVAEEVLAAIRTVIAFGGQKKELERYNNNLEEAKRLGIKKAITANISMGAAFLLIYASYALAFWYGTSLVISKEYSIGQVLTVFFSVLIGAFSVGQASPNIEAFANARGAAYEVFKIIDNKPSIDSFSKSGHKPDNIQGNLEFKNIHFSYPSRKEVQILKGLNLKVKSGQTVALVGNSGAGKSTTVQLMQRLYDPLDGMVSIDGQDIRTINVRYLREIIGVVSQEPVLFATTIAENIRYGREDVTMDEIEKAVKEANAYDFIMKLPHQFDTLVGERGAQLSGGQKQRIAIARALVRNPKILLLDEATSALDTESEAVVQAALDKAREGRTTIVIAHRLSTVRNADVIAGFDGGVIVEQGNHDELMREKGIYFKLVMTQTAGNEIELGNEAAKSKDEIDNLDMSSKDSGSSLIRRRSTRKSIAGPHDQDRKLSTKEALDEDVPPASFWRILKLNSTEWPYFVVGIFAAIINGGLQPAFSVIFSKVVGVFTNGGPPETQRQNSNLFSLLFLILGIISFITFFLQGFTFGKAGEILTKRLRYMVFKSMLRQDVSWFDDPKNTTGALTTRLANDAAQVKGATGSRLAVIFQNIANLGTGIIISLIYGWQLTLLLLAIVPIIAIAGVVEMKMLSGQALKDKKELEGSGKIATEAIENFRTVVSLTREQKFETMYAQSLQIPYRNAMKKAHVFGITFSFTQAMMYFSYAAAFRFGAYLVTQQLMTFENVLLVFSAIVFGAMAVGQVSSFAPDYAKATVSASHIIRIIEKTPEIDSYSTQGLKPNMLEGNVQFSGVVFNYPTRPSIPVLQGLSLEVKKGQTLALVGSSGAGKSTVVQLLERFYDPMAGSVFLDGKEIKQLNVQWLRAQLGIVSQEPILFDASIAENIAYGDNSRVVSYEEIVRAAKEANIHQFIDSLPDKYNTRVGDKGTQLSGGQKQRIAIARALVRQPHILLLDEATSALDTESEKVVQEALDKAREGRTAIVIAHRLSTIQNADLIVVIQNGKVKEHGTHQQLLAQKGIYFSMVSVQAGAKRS
Chain of Normal Human MDR1 P-glycoprotein (P08183 whole entry): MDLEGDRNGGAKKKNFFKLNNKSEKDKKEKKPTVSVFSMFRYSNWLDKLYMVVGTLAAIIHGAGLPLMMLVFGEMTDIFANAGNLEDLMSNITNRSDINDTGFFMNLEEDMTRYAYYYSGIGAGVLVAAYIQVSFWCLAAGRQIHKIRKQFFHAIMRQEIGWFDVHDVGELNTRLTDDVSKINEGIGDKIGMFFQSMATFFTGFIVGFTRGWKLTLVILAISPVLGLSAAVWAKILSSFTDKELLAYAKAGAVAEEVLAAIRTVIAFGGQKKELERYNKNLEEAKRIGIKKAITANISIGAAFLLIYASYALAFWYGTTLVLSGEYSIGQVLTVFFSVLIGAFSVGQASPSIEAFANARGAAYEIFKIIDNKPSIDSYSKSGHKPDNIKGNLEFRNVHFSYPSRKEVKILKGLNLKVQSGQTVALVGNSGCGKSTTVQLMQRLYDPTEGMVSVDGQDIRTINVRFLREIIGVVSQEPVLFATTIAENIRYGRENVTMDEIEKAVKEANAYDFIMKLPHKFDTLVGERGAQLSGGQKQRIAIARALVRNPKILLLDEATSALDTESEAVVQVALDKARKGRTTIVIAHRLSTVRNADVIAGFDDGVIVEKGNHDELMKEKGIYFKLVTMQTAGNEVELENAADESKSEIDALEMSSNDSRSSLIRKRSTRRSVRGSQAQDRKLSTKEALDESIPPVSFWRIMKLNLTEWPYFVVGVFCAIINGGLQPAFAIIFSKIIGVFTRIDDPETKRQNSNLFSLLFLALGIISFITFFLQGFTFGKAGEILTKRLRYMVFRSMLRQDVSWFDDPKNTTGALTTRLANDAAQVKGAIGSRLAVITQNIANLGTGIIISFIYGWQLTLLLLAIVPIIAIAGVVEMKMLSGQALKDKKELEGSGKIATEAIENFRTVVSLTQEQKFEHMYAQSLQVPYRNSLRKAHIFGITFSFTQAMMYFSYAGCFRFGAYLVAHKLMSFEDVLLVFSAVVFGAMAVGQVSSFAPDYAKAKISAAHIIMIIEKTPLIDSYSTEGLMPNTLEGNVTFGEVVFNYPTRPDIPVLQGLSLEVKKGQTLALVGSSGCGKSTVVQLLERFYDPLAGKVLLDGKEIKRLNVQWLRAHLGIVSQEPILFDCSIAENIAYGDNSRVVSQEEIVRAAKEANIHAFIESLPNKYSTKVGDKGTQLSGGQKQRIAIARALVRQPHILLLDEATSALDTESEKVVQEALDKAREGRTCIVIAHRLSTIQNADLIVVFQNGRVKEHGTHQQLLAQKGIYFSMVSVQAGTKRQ

Effect on stimulated ATPase ([3]; in the presence of verapamil): significantly inhibit | Stimulated ATPase (% of DMSO) ([3]; in the presence of verapamil, ± standard deviation): 49 ± 2 % of DMSO | Basal ATPase (% of DMSO) ([3]; without added transport substrate, ± standard deviation): 95 ± 11 % of DMSO | Basal ATPase (% of DMSO) ([5]; basal): 88 ± 9 % of DMSO | Stimulated ATPase (% of DMSO) ([5]; stimulated): 62 ± 3 % of DMSO
Compound: Cc1cc(C)c(-c2cc(NC(=O)CSc3n[nH]c(C4CC4)n3)n(-c3ccccc3)n2)cc1C [SMU-29, 2-[(5-cyclopropyl-1H-1,2,4-triazol-3-yl)sulfanyl]-N-[2-phenyl-5-(2,4,5-trimethylphenyl)pyrazol-3-yl]acetamide]
Effect on SL-ANP binding ([1]; ESR data of Brewer et al. (2014)): not interfere with ATP binding | Maximum ATP binding mol SL-ANP bound/mol P-gp ([1]; in presence of 29, taken from Brewer et al. (2014)): 1.9 ± 0.1^1 mol SL-ANP bound/mol P-gp | Sensitivity to doxorubicin (A2780): hyper-sensitized | Fold vs PTX ÷ 29 (DU145TXR [2]; 3 μM inhibitor): 1 Fold | Fold vs PTX (DU145TXR [2]; 3 μM inhibitor, fold improvement of PTX sensitivity vs PTX alone): 3 Fold | Fold vs PTX ÷ 29 (DU145TXR [2]; 5 μM inhibitor): 1 Fold | Fold vs PTX (DU145TXR [2]; 5 μM inhibitor, vs PTX alone): 11 Fold | Fold vs PTX ÷ 29 (DU145TXR [2]; 7 μM inhibitor): 1 Fold | Fold vs PTX (DU145TXR [2]; 7 μM inhibitor, vs PTX alone): 36 Fold | Fold vs PTX ÷ 29 (DU145TXR [2]; 10 μM inhibitor): 1 Fold | Fold vs PTX (DU145TXR [2]; 10 μM inhibitor, vs PTX alone): 101 Fold | IC50 (DU145TXR [4]): 37.9 ± 0.02 µM
